Target: T1, NHE-1 (Homo sapiens, UniProt P19634)
T1 construct: endogenous in cells; host or cells: HT-29
Assay: Evaluation of NHE-1 Inhibition (pHi) in HT-29 cells
Format: cell-based
Details: BCECF dye, 50% inhibition of the intracellular pH recovery, read-out: NHE1 HT29 pHi IC50
Procedure, shortened: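 Intracellular pH measured with BCECF in HT-29 cells after 24 h culture. Cells dye-loaded 30 min at 37° C, then acid-loaded with NH4Cl-containing choline buffer (pH 7.5) for 30 min at RT. Compounds added on an FDSS6000 fluorescence reader.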

T1 sequence (P19634 whole entry): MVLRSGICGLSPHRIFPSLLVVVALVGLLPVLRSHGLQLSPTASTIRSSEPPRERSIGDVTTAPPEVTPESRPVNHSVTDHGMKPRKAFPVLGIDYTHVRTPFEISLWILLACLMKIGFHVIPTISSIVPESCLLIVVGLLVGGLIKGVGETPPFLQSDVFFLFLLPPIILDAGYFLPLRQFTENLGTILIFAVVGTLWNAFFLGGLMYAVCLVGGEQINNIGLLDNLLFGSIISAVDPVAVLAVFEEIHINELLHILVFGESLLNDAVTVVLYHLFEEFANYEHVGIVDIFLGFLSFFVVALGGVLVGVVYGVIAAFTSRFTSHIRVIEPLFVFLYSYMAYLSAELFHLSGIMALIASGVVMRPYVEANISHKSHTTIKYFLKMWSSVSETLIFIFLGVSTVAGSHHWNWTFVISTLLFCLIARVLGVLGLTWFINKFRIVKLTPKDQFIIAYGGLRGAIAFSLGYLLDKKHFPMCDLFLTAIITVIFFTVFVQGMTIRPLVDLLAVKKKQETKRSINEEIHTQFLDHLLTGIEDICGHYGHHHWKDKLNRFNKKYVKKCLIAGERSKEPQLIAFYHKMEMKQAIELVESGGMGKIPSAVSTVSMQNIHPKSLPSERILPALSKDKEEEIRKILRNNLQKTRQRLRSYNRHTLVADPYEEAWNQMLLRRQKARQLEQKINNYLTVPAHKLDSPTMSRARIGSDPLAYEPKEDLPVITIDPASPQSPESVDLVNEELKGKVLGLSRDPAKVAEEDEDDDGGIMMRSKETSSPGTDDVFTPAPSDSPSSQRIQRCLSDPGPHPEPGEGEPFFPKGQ

| Compound | IC50 |
| --- | --- |
| CS(=O)(=O)c1cccc(C(=O)N2CCC(c3ccc(C(=O)NC(=N)N)cc3C(F)(F)F)CC2)c1 [N-{4-[1-(3-Methanesulfonyl-benzoyl)-piperidin-4-yl]-3-trifluoromethyl-benzoyl}-guanidine] | 63 nM |
| COc1cc(C(=O)N2CCC(c3ccc(C(=O)NC(=N)N)cc3C(F)(F)F)CC2)ccc1-c1cccnc1 [N-{4-[1-(3-Methoxy-4-pyridin-3-yl-benzoyl)-piperidin-4-yl]-3-trifluoromethyl-benzoyl}-guanidine] | 66 nM |
| COc1cccc(C(=O)N2CCC(c3ccc(C(=O)NC(=N)N)cc3C(F)(F)F)CC2)c1 [N-{4-[1-(3-Methoxy-benzoyl)-piperidin-4-yl]-3-trifluoromethyl-benzoyl}-guanidine] | 106 nM |
| COCCC(=O)N1CCC(c2ccc(C(=O)NC(=N)N)cc2C(F)(F)F)CC1 [N-{4-[1-(3-Methoxy-propionyl)-piperidin-4-yl]-3-trifluoromethyl-benzoyl}-guanidine] | 20 nM |
| COc1cccnc1C(=O)N1CCC(c2ccc(C(=O)NC(=N)N)cc2C(F)(F)F)CC1 [N-{4-[1-(3-Methoxy-pyridine-2-carbonyl)-piperidin-4-yl]-3-trifluoromethyl-benzoyl}-guanidine] | 55 nM |
| Cn1cncc1C(=O)N1CCC(c2ccc(C(=O)NC(=N)N)cc2C(F)(F)F)CC1 [N-{4-[1-(3-Methyl-3H-imidazole-4-carbonyl)-piperidin-4-yl]-3-trifluoromethyl-benzoyl}-guanidine] | 15 nM |
| CC(C)CC(=O)N1CCC(c2ccc(C(=O)NC(=N)N)cc2C(F)(F)F)CC1 [N-{4-[1-(3-Methyl-butyryl)-piperidin-4-yl]-3-trifluoromethyl-benzoyl}-guanidine] | 49 nM |
| N=C(N)NC(=O)c1ccc(C2CCN(C(=O)c3cccc(-c4cnco4)c3)CC2)c(C(F)(F)F)c1 [N-{4-[1-(3-Oxazol-5-yl-benzoyl)-piperidin-4-yl]-3-trifluoromethyl-benzoyl}-guanidine] | 14 nM |
| N=C(N)NC(=O)c1ccc(C2CCN(C(=O)CCc3ccccc3)CC2)c(C(F)(F)F)c1 [N-{4-[1-(3-Phenyl-propionyl)-piperidin-4-yl]-3-trifluoromethyl-benzoyl}-guanidine] | 75 nM |
| N=C(N)NC(=O)c1ccc(C2CCN(C(=O)c3cccc(-n4cccn4)c3)CC2)c(C(F)(F)F)c1 [N-{4-[1-(3-Pyrazol-1-yl-benzoyl)-piperidin-4-yl]-3-trifluoromethyl-benzoyl}-guanidine] | 150 nM |
| N=C(N)NC(=O)c1ccc(C2CCN(C(=O)c3cccc(-c4ccccn4)c3)CC2)c(C(F)(F)F)c1 [N-{4-[1-(3-Pyridin-2-yl-benzoyl)-piperidin-4-yl]-3-trifluoromethyl-benzoyl}-guanidine] | 147 nM |
| N=C(N)NC(=O)c1ccc(C2CCN(C(=O)c3cccc(-c4cccnc4)c3)CC2)c(C(F)(F)F)c1 [N-{4-[1-(3-Pyridin-3-yl-benzoyl)-piperidin-4-yl]-3-trifluoromethyl-benzoyl}-guanidine] | 140 nM |
| N=C(N)NC(=O)c1ccc(C2CCN(C(=O)c3cccc(S(=O)(=O)C(F)(F)F)c3)CC2)c(C(F)(F)F)c1 [N-{4-[1-(3-Trifluoromethanesulfonyl-benzoyl)-piperidin-4-yl]-3-trifluoromethyl-benzoyl}-guanidine] | 280 nM |
| CS(=O)(=O)c1cc(C(=O)NC(=N)N)ccc1C1CCN(C(=O)c2cccc(C#N)c2)CC1 [N-{4-[1-(3-cyano-benzoyl)-piperidin-4-yl]-3-methanesulfonyl-benzoyl}-guanidine] | 34 nM |
| Cc1cc(C2CCN(C(=O)c3cccc(C#N)c3)CC2)c(S(C)(=O)=O)cc1C(=O)NC(=N)N [N-{4-[1-(3-cyano-benzoyl)-piperidin-4-yl]-5-methanesulfonyl-2-methyl-benzoyl}-guanidine] | 23 nM |
| N=C(N)NC(=O)c1ccc(C2=CCN(C(=O)c3cnc[nH]3)CC2)c(C(F)(F)F)c1 [N-{4-[1-(3H-Imidazole-4-carbonyl)-1,2,3,6-tetrahydro-pyridin-4-yl]-3-trifluoromethyl-benzoyl}-guanidine] | 26 nM |
| N=C(N)NC(=O)c1ccc(C2CCN(C(=O)C3(N)CCS(=O)(=O)CC3)CC2)c(C(F)(F)F)c1 [N-{4-[1-(4-Amino-1,1-dioxo-hexahydro-g-thiopyran-4-carbonyl)-piperidin-4-yl]-3-trifluoromethyl-benzoyl}-guanidine] | 11 nM |
| N=C(N)NC(=O)c1ccc(C2CCN(C(=O)C3(N)CCOCC3)CC2)c(C(F)(F)F)c1 [N-{4-[1-(4-Amino-tetrahydro-pyran-4-carbonyl)-piperidin-4-yl]-3-trifluoromethyl-benzoyl}-guanidine] | 18 nM |
| N#Cc1ccc(C(=O)N2CCC(c3ccc(C(=O)NC(=N)N)cc3C(F)(F)F)CC2)cc1 [N-{4-[1-(4-Cyano-benzoyl)-piperidin-4-yl]-3-trifluoromethyl-benzoyl}-guanidine] | 24 nM |
| CN(C)c1ccc(C(=O)N2CCC(c3ccc(C(=O)NC(=N)N)cc3C(F)(F)F)CC2)cc1 [N-{4-[1-(4-Dimethylamino-benzoyl)-piperidin-4-yl]-3-trifluoromethyl-benzoyl}-guanidine] | 180 nM |
| CS(=O)(=O)c1cc(C(=O)NC(=N)N)ccc1C1CCN(C(=O)c2ccc(F)cc2)CC1 [N-{4-[1-(4-Fluoro-benzoyl)-piperidin-4-yl]-3-methanesulfonyl-benzoyl}-guanidine] | 18 nM |
| N=C(N)NC(=O)c1ccc(C2=CCN(C(=O)c3ccc(-n4ccnc4)cc3)CC2)c(C(F)(F)F)c1 [N-{4-[1-(4-Imidazol-1-yl-benzoyl)-1,2,3,6-tetrahydro-pyridin-4-yl]-3-trifluoromethyl-benzoyl}-guanidine] | 33 nM |
| N=C(N)NC(=O)c1ccc(C2CCN(C(=O)c3ccc(-n4ccnc4)cc3)CC2)c(C(F)(F)F)c1 [N-{4-[1-(4-Imidazol-1-yl-benzoyl)-piperidin-4-yl]-3-trifluoromethyl-benzoyl}-guanidine] | 71 nM |
| CS(=O)(=O)c1ccc(C(=O)N2CC=C(c3ccc(C(=O)NC(=N)N)cc3C(F)(F)F)CC2)cc1 [N-{4-[1-(4-Methanesulfonyl-benzoyl)-1,2,3,6-tetrahydro-pyridin-4-yl]-3-trifluoromethyl-benzoyl}-guanidine] | 49 nM |
| CS(=O)(=O)c1ccc(C(=O)N2CCC(c3ccc(C(=O)NC(=N)N)cc3C(F)(F)F)CC2)cc1 [N-{4-[1-(4-Methanesulfonyl-benzoyl)-piperidin-4-yl]-3-trifluoromethyl-benzoyl}-guanidine] | 21 nM |
| COc1ccc(C(=O)N2CCC(c3ccc(C(=O)NC(=N)N)cc3C(F)(F)F)CC2)c2ccccc12 [N-{4-[1-(4-Methoxy-naphthalene-1-carbonyl)-piperidin-4-yl]-3-trifluoromethyl-benzoyl}-guanidine] | 320 nM |
| COCc1ccc(C(=O)N2CCC(c3ccc(C(=O)NC(=N)N)cc3C(F)(F)F)CC2)cc1 [N-{4-[1-(4-Methoxymethyl-benzoyl)-piperidin-4-yl]-3-trifluoromethyl-benzoyl}-guanidine] | 122 nM |

The next lines start with the values.

| IC50 | Compound |
| --- | --- |
| 105 nM | N=C(N)NC(=O)c1ccc(C2CCN(C(=O)c3cccc(F)c3)CC2)c(C(F)(F)F)c1 [N-{4-[1-(3-Fluoro-benzoyl)-piperidin-4-yl]-3-trifluoromethyl-benzoyl}-guanidine] |
| 320 nM | N=C(N)NC(=O)c1ccc(C2CCN(C(=O)c3ccc(Cl)cc3)CC2)c(C(F)(F)F)c1 [N-{4-[1-(4-Chloro-benzoyl)-piperidin-4-yl]-3-trifluoromethyl-benzoyl}-guanidine] |
| 350 nM | N=C(N)NC(=O)c1ccc(C2CCN(C(=O)c3ccc(F)cc3C(F)(F)F)CC2)c(C(F)(F)F)c1 [N-{4-[1-(4-Fluoro-2-trifluoromethyl-benzoyl)-piperidin-4-yl]-3-trifluoromethyl-benzoyl}-guanidine] |
| 16 nM | COc1cc(C2CCN(C(=O)c3ccc(F)cc3)CC2)c(C(F)(F)F)cc1C(=O)NC(=N)N [N-{4-[1-(4-Fluoro-benzoyl)-piperidin-4-yl]-2-methoxy-5-trifluoromethyl-benzoyl}-guanidine] |
| 7 nM | Cc1cc(C2CCN(C(=O)c3ccc(F)cc3)CC2)c(C(F)(F)F)cc1C(=O)NC(=N)N [N-{4-[1-(4-Fluoro-benzoyl)-piperidin-4-yl]-2-methyl-5-trifluoromethyl-benzoyl}-guanidine] |
| 110 nM | N=C(N)NC(=O)c1ccc(C2CCN(C(=O)c3ccc(F)cc3)CC2)c(C(F)(F)F)c1 [N-{4-[1-(4-Fluoro-benzoyl)-piperidin-4-yl]-3-trifluoromethyl-benzoyl}-guanidine] |
| 23 nM | Cc1cc(C2CCN(C(=O)c3ccc(F)cc3)CC2)c(S(C)(=O)=O)cc1C(=O)NC(=N)N [N-{4-[1-(4-Fluoro-benzoyl)-piperidin-4-yl]-5-methanesulfonyl-2-methyl-benzoyl}-guanidine] |
| 40 nM | N=C(N)NC(=O)c1ccc(C2CCN(C(=O)c3ccc(F)cc3)C2)c(C(F)(F)F)c1 (stereo not drawn) [N-{4-[1-(4-Fluoro-benzoyl)-pyrrolidin-3-yl]-3-trifluoromethyl-benzoyl}-guanidine] |
| 25 nM | N=C(N)NC(=O)c1ccc(C2CCN(C(=O)c3ccc(O)cc3)CC2)c(C(F)(F)F)c1 [N-{4-[1-(4-Hydroxy-benzoyl)-piperidin-4-yl]-3-trifluoromethyl-benzoyl}-guanidine] |
| 28 nM | C[S+]([O-])c1ccc(C(=O)N2CCC(c3ccc(C(=O)NC(=N)N)cc3C(F)(F)F)CC2)cc1 (stereo not drawn) [N-{4-[1-(4-Methanesulfinyl-benzoyl)-piperidin-4-yl]-3-trifluoromethyl-benzoyl}-guanidine] |
| 20 nM | Cc1cc(C2CCN(C(=O)c3ccc(S(C)(=O)=O)cc3)CC2)c(C(F)(F)F)cc1C(=O)NC(=N)N [N-{4-[1-(4-Methanesulfonyl-benzoyl)-piperidin-4-yl]-2-methyl-5-trifluoromethyl-benzoyl}-guanidine] |
| 195 nM | COc1ccc(C(=O)N2CCC(c3ccc(C(=O)NC(=N)N)cc3C(F)(F)F)CC2)cc1 [N-{4-[1-(4-Methoxy-benzoyl)-piperidin-4-yl]-3-trifluoromethyl-benzoyl}-guanidine] |

Reference: patent publication US20110118262A1, “Pyrrolidinyl and Piperidinyl Compounds Useful as NHE-1 Inhibitiors” (BOEHRINGER INGELHEIM INTERNATIONAL GMBH, priority 2008, published 2011)
